Data from patent publication US8435980B2 (AbbVie Inc., priority 2009, dated 2013).

Target: T1, Cdc7 (BEV coexpressed huCDC7/DBF4) (Homo sapiens, UniProt O00311)
T1 construct: made in house; host or cells: BEV (baculovirus expression vector) co-expression; insect cells are implied but no cell line is named
Experiment: Cdc7 enzyme inhibition assay ([33P]ATP, biotinylated peptide substrate, FlashPlate)
Format: biochemical
Conditions: Table 3; enzyme inhibition data (Ki)
Procedure: Cdc7 (BEV coexpressed huCDC7/DBF4) is prepared internally. Cdc7 assays are conducted as follows with final concentrations as listed. […] Reactions are quenched after 1 hr by the addition of 90 μL stop buffer (50 mM EDTA, 2M NaCl). […] (Ki) for exemplary compounds.

T1 sequence (O00311 whole entry): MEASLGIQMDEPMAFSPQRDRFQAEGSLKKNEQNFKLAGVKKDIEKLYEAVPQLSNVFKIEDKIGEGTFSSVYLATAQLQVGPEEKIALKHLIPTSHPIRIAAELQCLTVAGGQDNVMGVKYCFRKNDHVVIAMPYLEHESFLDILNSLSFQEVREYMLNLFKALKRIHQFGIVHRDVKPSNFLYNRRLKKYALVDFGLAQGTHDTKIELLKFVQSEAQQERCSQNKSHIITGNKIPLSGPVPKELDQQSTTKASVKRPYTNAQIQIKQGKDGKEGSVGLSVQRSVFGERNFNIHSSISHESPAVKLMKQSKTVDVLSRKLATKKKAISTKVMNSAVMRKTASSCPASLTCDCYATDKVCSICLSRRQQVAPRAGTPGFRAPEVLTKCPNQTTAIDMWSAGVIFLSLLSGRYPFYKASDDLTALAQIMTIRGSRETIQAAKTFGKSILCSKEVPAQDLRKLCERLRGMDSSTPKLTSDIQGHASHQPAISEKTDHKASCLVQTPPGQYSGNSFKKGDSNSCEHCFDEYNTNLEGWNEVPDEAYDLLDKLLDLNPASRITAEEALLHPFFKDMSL
T1 sequence (Q9UBU7 whole entry partner): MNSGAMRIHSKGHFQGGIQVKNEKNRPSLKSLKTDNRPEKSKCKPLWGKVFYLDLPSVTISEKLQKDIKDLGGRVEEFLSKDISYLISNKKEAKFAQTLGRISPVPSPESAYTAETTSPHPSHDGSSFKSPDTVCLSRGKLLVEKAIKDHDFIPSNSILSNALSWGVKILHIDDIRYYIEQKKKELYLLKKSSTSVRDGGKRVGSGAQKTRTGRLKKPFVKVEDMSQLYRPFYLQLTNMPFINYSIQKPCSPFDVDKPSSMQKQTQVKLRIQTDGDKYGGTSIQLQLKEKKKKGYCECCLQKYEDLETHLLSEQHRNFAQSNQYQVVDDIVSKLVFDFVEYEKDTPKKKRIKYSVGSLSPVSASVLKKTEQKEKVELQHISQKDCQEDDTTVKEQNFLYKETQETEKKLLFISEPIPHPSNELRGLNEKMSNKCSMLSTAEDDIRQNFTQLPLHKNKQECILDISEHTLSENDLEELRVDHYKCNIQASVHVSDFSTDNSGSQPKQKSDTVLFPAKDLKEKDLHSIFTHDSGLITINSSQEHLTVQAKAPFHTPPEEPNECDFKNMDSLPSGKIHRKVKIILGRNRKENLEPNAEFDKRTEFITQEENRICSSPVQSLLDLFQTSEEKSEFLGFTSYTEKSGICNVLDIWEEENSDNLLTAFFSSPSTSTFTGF

With `CS(=O)(=O)NCCS(=O)(=O)N[C@H]1CC[C@H](Nc2cc(-c3c[nH]c4ncccc34)cc(Cl)n2)CC1` [Example 194, N-(trans-4-{[6-chloro-4-(1H-pyrrolo[2,3-b]pyridin-3-yl)pyridin-2-yl]amino}cyclohexyl)-2-[(methylsulfonyl)amino]ethanesulfonamide] the Ki was less than 10 nM.
With `Clc1cc(-c2c[nH]c3ncc(OCCN4CCOCC4)cc23)cc(NC2CCCCC2)n1` [Example 195, 6-chloro-N-cyclohexyl-4-{5-[2-(morpholin-4-yl)ethoxy]-1H-pyrrolo[2,3-b]pyridin-3-yl}pyridin-2-amine] the Ki was less than 10 nM.
For `Cn1cncc1COc1cnc2[nH]cc(-c3cc(Cl)nc(NC4CCCCC4)c3)c2c1` [Example 196, 6-chloro-N-cyclohexyl-4-{5-[(1-methyl-1H-imidazol-5-yl)methoxy]-1H-pyrrolo[2,3-b]pyridin-3-yl}pyridin-2-amine], the Ki was less than 10 nM.
Molecule `CN1CCC(C2CCC(Nc3cc(-c4c[nH]c5ncccc45)cc(Cl)n3)CC2)C1` (stereo not drawn) [Example 197, 6-chloro-N-[4-(1-methylpyrrolidin-3-yl)cyclohexyl]-4-(1H-pyrrolo[2,3-b]pyridin-3-yl)pyridin-2-amine] has a Ki of less than 10 nM.
`Fc1ccc(CN2CCC(C3CCC(Nc4cc(-c5c[nH]c6ncccc56)cc(Cl)n4)CC3)C2)cc1` (stereo not drawn) [Example 198, 6-chloro-N-{4-[1-(4-fluorobenzyl)pyrrolidin-3-yl]cyclohexyl}-4-(1H-pyrrolo[2,3-b]pyridin-3-yl)pyridin-2-amine] showed a Ki of less than 10 nM.
`CS(=O)(=O)N1CCC(C2CCC(Nc3cc(-c4c[nH]c5ncccc45)cc(Cl)n3)CC2)C1` (stereo not drawn) [Example 199, 6-chloro-N-{4-[1-(methylsulfonyl)pyrrolidin-3-yl]cyclohexyl}-4-(1H-pyrrolo[2,3-b]pyridin-3-yl)pyridin-2-amine] was tested, and the Ki was less than 10 nM.
`Clc1cc(-c2c[nH]c3ncccc23)cc(NC2CCN(C3CCC(NC4CCC4)CC3)CC2)n1` (stereo not drawn) [Example 200, 6-chloro-N-{1-[4-(cyclobutylamino)cyclohexyl]piperidin-4-yl}-4-(1H-pyrrolo[2,3-b]pyridin-3-yl)pyridin-2-amine] gave a Ki of less than 10 nM.
In the case of `N#Cc1cnc2[nH]cc(-c3cc(Cl)nc(NC4CCCCC4)c3)c2c1` [Example 201, 3-[2-chloro-6-(cyclohexylamino)pyridin-4-yl]-1-1H-pyrrolo[2,3-b]pyridine-5-carbonitrile], the Ki is reported as 10 to 100 nM.
For `O=C(N[C@H]1CC[C@H](Nc2cc(-c3c[nH]c4ncccc34)cc(Cl)n2)CC1)c1ccc(F)cc1F` [Example 202, N-(trans-4-{[6-chloro-4-(1H-pyrrolo[2,3-b]pyridin-3-yl)pyridin-2-yl]amino}cyclohexyl)-2,4-difluorobenzamide], the Ki was less than 10 nM.
Molecule `O=C(N[C@H]1CC[C@H](Nc2cc(-c3c[nH]c4ncccc34)cc(Cl)n2)CC1)c1ccc(OC(F)(F)F)cc1` [Example 203, N-(trans-4-{[6-chloro-4-(1H-pyrrolo[2,3-b]pyridin-3-yl)pyridin-2-yl]-amino}cyclohexyl)-4-(trifluoromethoxy)benzamide] has a Ki of 10 to 100 nM.
`Cc1cnc2[nH]cc(-c3cc(Cl)nc(NC4CCCCC4)c3)c2c1` [Example 204, 6-chloro-N-cyclohexyl-4-(5-methyl-1H-pyrrolo[2,3-b]pyridin-3-yl)pyridin-2-amine] gave a Ki of less than 10 nM.
Work on `Clc1cc(-c2c[nH]c3ncccc23)cc(Nc2ccccc2)n1` [Example 205, 6-chloro-N-phenyl-4-(1H-pyrrolo[2,3-b]pyridin-3-yl)pyridin-2-amine] yielded a Ki of less than 10 nM.
In the case of `COc1cc(N2CCC(N3CCN(C)CC3)CC2)ccc1Nc1cc(-c2c[nH]c3ncccc23)cc(Cl)n1` [Example 206, 6-chloro-N-{2-methoxy-4-[4-(4-methylpiperazin-1-yl)piperidin-1-yl]phenyl}-4-(1H-pyrrolo[2,3-b]pyridin-3-yl)pyridin-2-amine], the Ki is reported as less than 10 nM.
`O=C(N[C@H]1CC[C@H](Nc2cc(-c3c[nH]c4ncccc34)cc(Cl)n2)CC1)C1CN(Cc2ccc(Cl)cc2)C1` [Example 207, 1-(4-chlorobenzyl)-N-(trans-4-{[6-chloro-4-(1H-pyrrolo[2,3-b]pyridin-3-yl)pyridin-2-yl]amino}cyclohexyl)azetidine-3-carboxamide] showed a Ki of less than 10 nM.
In the case of `C=CCNC(=O)NCCS(=O)(=O)N[C@H]1CC[C@H](Nc2cc(-c3c[nH]c4ncccc34)cc(Cl)n2)CC1` [Example 208, N-(trans-4-{[6-chloro-4-(1H-pyrrolo[2,3-b]pyridin-3-yl)pyridin-2-yl]amino}cyclohexyl)-2-[(prop-2-en-1-ylcarbamoyl)amino}ethanesulfonamide], the Ki is reported as less than 10 nM.
`O=C(N[C@H]1CC[C@H](Nc2cc(-c3c[nH]c4ncccc34)cc(Cl)n2)CC1)C1CN(Cc2cccnc2)C1` [Example 209, N-(trans-4-{[6-chloro-4-(1H-pyrrolo[2,3-b]pyridin-3-yl)pyridin-2-yl]amino}cyclohexyl)-1-(pyridin-3-ylmethyl)azetidine-3-carboxamide] gave a Ki of less than 10 nM.
Work on `O=C(N[C@H]1CC[C@H](Nc2cc(-c3c[nH]c4ncccc34)cc(Cl)n2)CC1)C1CN(Cc2ccc(F)cc2F)C1` [Example 210, N-(trans-4-{[6-chloro-4-(1H-pyrrolo[2,3-b]pyridin-3-yl)pyridin-2-yl]amino}cyclohexyl)-1-(2,4-difluorobenzyl)azetidine-3-carboxamide] yielded a Ki of less than 10 nM.
With `Cn1ccc(CN2CC(C(=O)N[C@H]3CC[C@H](Nc4cc(-c5c[nH]c6ncccc56)cc(Cl)n4)CC3)C2)n1` [Example 211, N-(trans-4-{[6-chloro-4-(1H-pyrrolo[2,3-b]pyridin-3-yl)pyridin-2-yl]amino}cyclohexyl)-1-[(1-methyl-1H-pyrazol-3-yl)methyl]azetidine-3-carboxamide] the Ki was less than 10 nM.
`OCCn1cc(-c2cnc3[nH]cc(-c4cc(Cl)nc(NC5CCCCC5)c4)c3c2)cn1` [Example 212, 2-(4-{3-[2-chloro-6-(cyclohexylamino)pyridin-4-yl]-1H-pyrrolo[2,3-b]pyridin-5-yl}-1H-pyrazol-1-yl)ethanol] showed a Ki of less than 10 nM.
Work on `COc1cnc2[nH]cc(-c3cc(Cl)nc(N[C@H]4CC[C@H](N)CC4)c3)c2c1` [Example 213, trans-N-[6-chloro-4-(5-methoxy-1H-pyrrolo[2,3-b]pyridin-3-yl)pyridin-2-yl]cyclohexane-1,4-diamine] yielded a Ki of less than 10 nM.
With `Clc1cc(-c2c[nH]c3ncc(-c4cccnc4)cc23)cc(NC2CCCCC2)n1` [Example 214, 6-chloro-N-cyclohexyl-4-[5-(pyridin-3-yl)-1H-pyrrolo[2,3-b]pyridin-3-yl]pyridin-2-amine] the Ki was less than 10 nM.
For `Clc1cc(-c2c[nH]c3ncc(-c4ccsc4)cc23)cc(NC2CCCCC2)n1` [Example 215, 6-chloro-N-cyclohexyl-4-[5-(thiophen-3-yl)-1H-pyrrolo[2,3-b]pyridin-3-yl]pyridin-2-amine], the Ki was 10 to 100 nM.
`COc1cnc2[nH]cc(-c3cc(Cl)nc(N[C@H]4CC[C@H](NC(=O)C5CC5)CC4)c3)c2c1` [Example 216, N-(trans-4-{[6-chloro-4-(5-methoxy-1H-pyrrolo[2,3-b]pyridin-3-yl)pyridin-2-yl]amino}cyclohexyl)cyclopropanecarboxamide] gave a Ki of less than 10 nM.
`COc1cnc2[nH]cc(-c3cc(Cl)nc(N[C@H]4CC[C@H](NC(=O)C5CN(Cc6ccccc6)C5)CC4)c3)c2c1` [Example 217, 1-benzyl-N-(trans-4-{[6-chloro-4-(5-methoxy-1H-pyrrolo[2,3-b]pyridin-3-yl)pyridin-2-yl]amino}cyclohexyl)azetidine-3-carboxamide] gave a Ki of less than 10 nM.
For `COc1cnc2[nH]cc(-c3cc(Cl)nc(N[C@H]4CC[C@H](NS(=O)(=O)C5CC5)CC4)c3)c2c1` [Example 218, N-(trans-4-{[6-chloro-4-(5-methoxy-1H-pyrrolo[2,3-b]pyridin-3-yl)pyridin-2-yl]amino}cyclohexyl)cyclopropanesulfonamide], the Ki was less than 10 nM.
In the case of `COc1cnc2[nH]cc(-c3cc(Cl)nc(N[C@H]4CC[C@H](NS(C)(=O)=O)CC4)c3)c2c1` [Example 220, N-(trans-4-{[6-chloro-4-(5-methoxy-1H-pyrrolo[2,3-b]pyridin-3-yl)pyridin-2-yl]amino}cyclohexyl)methanesulfonamide], the Ki is reported as less than 10 nM.
`CN1CCN(Cc2cccc(-c3cnc4[nH]cc(-c5cc(Cl)nc(NC6CCCCC6)c5)c4c3)c2)CC1` [Example 221, 6-chloro-N-cyclohexyl-4-(5-{3-[(4-methylpiperazin-1-yl)methyl]phenyl}-1H-pyrrolo[2,3-b]pyridin-3-yl)pyridin-2-amine] gave a Ki of less than 10 nM.
`NS(=O)(=O)c1cccc(-c2cnc3[nH]cc(-c4cc(Cl)nc(NC5CCCCC5)c4)c3c2)c1` [Example 222, 3-{3-[2-chloro-6-(cyclohexylamino)pyridin-4-yl]-1H-pyrrolo[2,3-b]pyridin-5-yl}benzenesulfonamide] showed a Ki of less than 10 nM.
`NS(=O)(=O)c1ccc(-c2cnc3[nH]cc(-c4cc(Cl)nc(NC5CCCCC5)c4)c3c2)cc1` [Example 223, 4-{3-[2-chloro-6-(cyclohexylamino)pyridin-4-yl]-1H-pyrrolo[2,3-b]pyridin-5-yl}benzenesulfonamide] gave a Ki of less than 10 nM.
Work on `CCOc1cnc2[nH]cc(-c3cc(Cl)nc(N[C@H]4CC[C@H](N)CC4)c3)c2c1` [Example 224, trans-N-[6-chloro-4-(5-ethoxy-1H-pyrrolo[2,3-b]pyridin-3-yl)pyridin-2-yl]cyclohexane-1,4-diamine] yielded a Ki of less than 10 nM.
`Nc1cnc2[nH]cc(-c3cc(Cl)nc(NC4CCCCC4)c3)c2c1` [Example 225, 3-[2-chloro-6-(cyclohexylamino)pyridin-4-yl]-1H-pyrrolo[2,3-b]pyridin-5-amine] showed a Ki of less than 10 nM.
`CC(=O)Nc1cnc2[nH]cc(-c3cc(Cl)nc(NC4CCCCC4)c3)c2c1` [Example 226, N-{3-[2-chloro-6-(cyclohexylamino)pyridin-4-yl]-1H-pyrrolo[2,3-b]pyridin-5-yl}acetamide] was tested, and the Ki was less than 10 nM.
With `CNCC(=O)N[C@H]1CC[C@H](Nc2cc(-c3c[nH]c4ncc(OC)cc34)cc(Cl)n2)CC1` [Example 227, N-(trans-4-{[6-chloro-4-(5-methoxy-1H-pyrrolo[2,3-b]pyridin-3-yl)pyridin-2-yl]amino}cyclohexyl)-N^2-methylglycinamide] the Ki was less than 10 nM.
